Peptide text beside a SMILES is read from it.
Assays:
thrombin = target: T1, thrombin (Homo sapiens, UniProt P00734); assay: Cleavage of peptide by thrombin (RP-HPLC, ESI-MS); format: biochemical
T1 construct: residues in the termini of the light chain; and in the autolysis loop and C-terminus of the heavy chain; purchased Chemo-Sero-Therapeutic Research Institute (Kaketsuken, Japan), as a gift, not bought
Method: A. Evaluation of avathrin cleavage by thrombin by HPLC chromatograms. Avathrin (150 μM) was incubated with thrombin (5 μM) for various times and the reaction mixtures were separated using RP-HPLC; the masses of the cleavage products were analyzed with ESI-MS. At 0 min (upper panel), a single peak corresponding to full length avathrin (mass 3139 Da) was identified. At 120 min (middle panel), two new peaks corresponding to N-terminal cleavage product (^1[…]^10 of SEQ ID NO: 1; mass 982 Da) and C-terminal cleavage product ([…] (SEQ ID NO: 4); mass 2176 Da) were identified in addition to avathrin peak. At 600 min (lower panel), two peaks corresponding to the N- and C-terminal cleaved products were observed while avathrin peak was not observed, indicating complete cleavage. B. Time-dependent cleavage of avathrin by thrombin. Relative percentages of avathrin, its N- and C-terminal cleavage products were quantified by calculating areas under the curve. Each data point is the mean±S.D. of at least three independent experiments. C. Effect of thrombin cleavage on inhibitory properties of avathrin. Avathrin was incubated with thrombin (0.81 nM) for up to 36 h, and assayed at different time points for its ability to inhibit thrombin amidolytic activity on the chromogenic substrate S2238. […]
Thrombin amidolytic activity assays for all peptides were performed in 96-wells microtiter plates in 50 mM Tris buffer (pH 7.4) containing 100 mM NaCl and 1 mg/ml bovine serum albumin. […] The rates of formation of p-nitroaniline were followed by measuring the absorbance at 405 nm for 10 min with a Tecan InfinitePro M200 microplate reader from Tecan (Männedorf, Switzerland). […] To measure the inhibitory constants, different concentrations of S2238 were used and the residual velocities were determined using the Morrison's tight binding equation. Inhibition of thrombin fibrinogenolytic activity of peptides were tested by measuring absorbance at 650 nm using a Sunrise microplate reader from Tecan (Männedorf, Switzerland) as described previously [Koh C Y, et al., J Biol Chem 282: 29101-13 (2007)]. […] Effects of avathrin on the amidolytic activities of these serine proteases were determined using respective chromogenic substrates. […] After different incubation times, reactions were quenched with 1% TFA (pH 1.8) and loaded onto a Jupiter Proteo column (4 μm, 90 Å, 100×1.0 mm) attached to a Dionex nano-HPLC system from Thermo Fisher Scientific (Waltham, Mass., USA) and eluted using an acetonitrile gradient with 0.05% TFA and 99.95% MilliQ water as eluent A and 0.05% TFA, 19.95% MilliQ water and 80% ACN as eluent B. Masses of all peaks were measured to identify cleavage products, which were subsequently quantified by integrating the peaks and calculating the area under the curves. […]

[1] = system: platelets (ADP-induced platelet aggregation); assay: Preservation of platelet function in blood tubes (Multiplate, ADP-induced platelet aggregation); format: cell-based, human (healthy volunteers); settings: ADP agonist
Method: Individual peptides are dissolved in phosphate buffered saline to prepare 10× peptide solutions (ie. concentrations of peptides are 10 times higher than the final concentrations at which they are to be tested). 0.3 ml of the 10× peptide solutions are placed in blood tubes without any additives. Blood was drawn from healthy volunteers using syringes and immediately transferred to a 50 ml conical centrifuge tube (Falcon tube) before pipetting 2.7 ml of the blood into blood tubes with peptide solutions. Final concentrations of peptides are as stated in Table 5 and 6.
Blood tubes with various peptides at different concentrations were left standing at room temperature until tested at designated times. At different time points, tubes were inverted several times and blood samples were taken out for platelet aggregation tests using a Multiplate® Platelet aggregometer with adenosine diphosphate (ADP) as agonist according to manufacturer's recommended protocols.

clot-bound thrombin = clot-bound thrombin (Homo sapiens, UniProt P00734); assay: biochemical
Method: Clot-bound thrombin activity was tested using S2238. Briefly, fibrin clots were prepared by incubating 100 μL of 2 mg/mL fibrinogen (in 50 mM HEPES buffer, pH 7.5, 150 mM NaCl, 10 mg/mL CaCl2) with 100 μL 30 nM thrombin. After 2 h at 37° C., the clots were extensively washed with the same buffer. This washing was repeated after every three hours for a period of 24 hr. […] Chromogenic substrate, S2238 (final concentration 200 μM) was then added and the reaction mixture was incubated for 90 min at 37° C. Aliquots were taken, and substrate hydrolysis was estimated by end point reading at 405 nm, using a Tecan InfinitePro microplate reader. Experiments were performed in quadruplicate and percentage inhibition was plotted.

Row | SMILES | time at which complete cleavage by thrombin was observed (thrombin; avathrin 150 μM, thrombin 5 μM) [min] | Multiplate AUC (U) ([1]; 1.5 h, peptide 150 μM) | Multiplate AUC (U) ([1]; 1.5 h, peptide 300 μM) | Multiplate AUC (U) ([1]; 4 h, peptide 150 μM) | Multiplate AUC (U) ([1]; 4 h, peptide 300 μM) | Multiplate AUC (U) ([1]; 24 h, peptide 150 μM) | Multiplate AUC (U) ([1]; 24 h, peptide 300 μM) | Multiplate AUC (U) ([1]; 48 h, peptide 300 μM) | IC50 (clot-bound thrombin) [nM] | time to complete cleavage by thrombin (thrombin; peptide incubated with thrombin (30:1)) [h] | Multiplate AUC (U) ([1]; 48 h, peptide 150 μM) | Multiplate AUC (U) ([1]; 72 h, peptide 150 μM) | Multiplate AUC (U) ([1]; 72 h, peptide 300 μM)
1 | CC[C@H](C)[C@H](NC(=O)[C@H](CCCCN)NC(=O)[C@@H]1CCCN1C(=O)[C@@H](NC(=O)[C@H](C)NC(=O)[C@@H](NC(=O)[C@H](CCC(N)=O)NC(=O)[C@H](Cc1c[nH]cn1)NC(=O)CNC(=O)CNC(=O)[C@@H](N)CO)[C@@H](C)O)C(C)C)C(=O)N[C@@H](CO)C(=O)N[C@@H](CCCCN)C(=O)N[C@@H](CCC(N)=O)C(=O)NCC(=O)N[C@@H](CC(C)C)C(=O)NCC(=O)NCC(=O)N[C@@H](CC(=O)O)C(=O)N[C@@H](Cc1ccccc1)C(=O)N[C@@H](CCC(=O)O)C(=O)N[C@@H](CCC(=O)O)C(=O)N[C@H](C(=O)N1CCC[C@H]1C(=O)N[C@@H](CO)C(=O)N[C@@H](CC(=O)O)C(=O)N[C@@H](CCC(=O)O)C(=O)N[C@H](C(=O)N[C@H](C(=O)N[C@@H](CCC(=O)O)C(=O)O)[C@@H](C)CC)[C@@H](C)CC)[C@@H](C)CC [Avathrin] (H-SGGHQTAVPKISKQGLGGDFEEIPSDEIIE-OH; N-terminus and C-terminus assumed) | 600 | 60.9 | 62.4 | 53.6 | 46.8 | 55.8 | 43.3 | 3.5 | 1740 ± 350 |  |  |  | 
2 | CC[C@H](C)[C@H](NC(=O)[C@H](C)NC(=O)[C@H](CC(=O)O)NC(=O)[C@H](CC(=O)O)NC(=O)[C@@H]1CCCN1C(=O)[C@@H](NC(=O)[C@H](CCC(=O)O)NC(=O)[C@H](CCC(=O)O)NC(=O)[C@H](Cc1ccccc1)NC(=O)[C@H](CC(=O)O)NC(=O)CNC(=O)[C@@H]1CCCN1C(=O)[C@@H]1CCCN1C(=O)[C@H](C)NC(=O)[C@@H](NC(=O)[C@H](CO)NC(=O)[C@H](Cc1ccc(O)cc1)NC(=O)[C@H](CCSC)NC(=O)[C@H](CCCCN)NC(=O)[C@@H]1CCCN1C(=O)[C@@H](NC(=O)[C@H](C)NC(=O)[C@H](CCCNC(=N)N)NC(=O)[C@@H](NC(=O)[C@H](C)NC(=O)[C@H](CCC(=O)O)NC(=O)[C@H](CC(=O)O)NC(=O)[C@@H](N)CO)C(C)C)[C@@H](C)CC)[C@@H](C)O)[C@@H](C)CC)C(=O)N[C@@H](CCC(=O)O)C(=O)N[C@@H](CCC(=O)O)C(=O)O [Ultravariegin] (H-SDEAVRAIPKMYSTAPPGDFEEIPDDAIEE-OH; N-terminus and C-terminus assumed) |  | 55.7 | 66.3 | 52 | 46.1 | 43.1 | 39.5 | 25.4 |  | 18 | 7.4 | 9.6 | 15.4

— patent publication US10906946B2, “Thrombin inhibitors” (priority 2015, dated 2021)
